Measured values reported in US5470837A, “5'-vinylhalo-aristeromycin/adenosine analogs and immunosuppressants” (Merrell Dow Pharmaceuticals Inc., priority 1994, dated 1995).

What was measured:
[1] = tested on: human peripheral blood mononuclear cells; assay: Mitogenic assay: pokeweed mitogen stimulated proliferation ([3H]-thymidine incorporation) of human peripheral blood mononuclear cells; format: cell-based
Method: Cells: Human peripheral blood mononuclear cells were isolated from samples of blood (in 0.01M sodium citrate) using 50 mL LEUKOPREP® separation tubes (Becton Dickenson, Lincoln Park, N.J.). Tubes were centrifuged at room temperature for 15 minutes at 2400 rpm in a swinging bucket rotor. The cells recovered at interface were washed in Dulbecco's PBS and resuspended in RPMI 1640 containing 10% FCS, 5×10^-5 M 2-mercaptoethanol, 2 mM L-glutamine, 1% penicillin-streptomycin and 1 mM HEPES buffer (CM). Mitogenic Assay: Human peripheral blood mononuclear cells (2×10^5) were incubated with pokeweed mitogen at a final concentration of 0.1 μg/mL or Concanavalin A at a final concentration of 1.0 μg/mL in 96 well flat-bottomed microtiter plates (Falcon 3072, Becton Dickinson). Compounds to be tested were added at the initiation of culture. The final volume was 0.2 mL. The cultures were incubated in 95% humidified air/5% CO2 at 37° C. for 2 days (Concanavalin A) or 6 days (Pokeweed mitogen). Eighteen hours before termination of the cultures, each well was pulsed with 1 μCi of [^3 H]-thymidine. Cells from individual wells were harvested onto glass fiber filter paper with an automated multi-sample harvester. Filters were placed in scintillation fluid (Universal Cocktail, ICN Radiochemicals, Irvin, Calif.) and the [^3 H]-thymidine incorporation, in counts per minute (cpm), was measured in a Packard Tri-carb 4640 Scintillation Counter. Peripheral blood mononuclear cells from three individuals were cultured with an optimal concentration of pokeweed mitogen, a T-dependent B-cell mitogen, in the presence of increasing concentrations of (Z)-4',5'-didehydro-5'-deoxy-5'-fluoroadenosine. […] Similar studies were performed culturing human peripheral blood cells with an optimal concentration of Concanavalin A, a potent T-cell mitogen.

[2] = tested on: human peripheral blood mononuclear cells; assay: Mitogenic assay: Concanavalin A stimulated proliferation ([3H]-thymidine incorporation) of human peripheral blood mononuclear cells; format: cell-based
Method: Cells: Human peripheral blood mononuclear cells were isolated from samples of blood (in 0.01M sodium citrate) using 50 mL LEUKOPREP® separation tubes (Becton Dickenson, Lincoln Park, N.J.). Tubes were centrifuged at room temperature for 15 minutes at 2400 rpm in a swinging bucket rotor. The cells recovered at interface were washed in Dulbecco's PBS and resuspended in RPMI 1640 containing 10% FCS, 5×10^-5 M 2-mercaptoethanol, 2 mM L-glutamine, 1% penicillin-streptomycin and 1 mM HEPES buffer (CM).
(§1) Mitogenic Assay: Human peripheral blood mononuclear cells (2×10^5) were incubated with pokeweed mitogen at a final concentration of 0.1 μg/mL or Concanavalin A at a final concentration of 1.0 μg/mL in 96 well flat-bottomed microtiter plates (Falcon 3072, Becton Dickinson). Compounds to be tested were added at the initiation of culture. The final volume was 0.2 mL. The cultures were incubated in 95% humidified air/5% CO2 at 37° C. for 2 days (Concanavalin A) or 6 days (Pokeweed mitogen). Eighteen hours before termination of the cultures, each well was pulsed with 1 μCi of [^3 H]-thymidine. Cells from individual wells were harvested onto glass fiber filter paper with an automated multi-sample harvester. Filters were placed in scintillation fluid (Universal Cocktail, ICN Radiochemicals, Irvin, Calif.) and the [^3 H]-thymidine incorporation, in counts per minute (cpm), was measured in a Packard Tri-carb 4640 Scintillation Counter.
Peripheral blood mononuclear cells from three individuals were cultured with an optimal concentration of pokeweed mitogen, a T-dependent B-cell mitogen, in the presence of increasing concentrations of (Z)-4',5'-didehydro-5'-deoxy-5'-fluoroadenosine. […] Similar studies were performed culturing human peripheral blood cells with an optimal concentration of Concanavalin A, a potent T-cell mitogen.

[3] = tested on: murine splenic mononuclear cells; assay: Mitogenic assay: Concanavalin A stimulated proliferation ([3H]-thymidine incorporation) of murine splenic mononuclear cells; format: cell-based, CD-1 mice
Text: Cells: Spleens and/or lymph nodes from a total of 16 individual outbred CD-1 mice (Charles River, Wilmington, Mass.) were asceptically removed, pooled, and single cell suspensions were made in Hank's Balanced Salt Solution (HBSS, calcium and magnesium free). Erythrocytes were lysed by treatment with Tris-buffered ammonium chloride (0.155M NH4 Cl, 0.0165M Tris, pH 7.2). Mononuclear cells were washed with HBSS and resuspended in Dulbecco's PBS and resuspended in RPMI 1640 containing 10% FCS, 5×10^-5 M 2mercaptoethanol, 2 mM L-glutamine, 1% penicillin-streptomycin and 1 mM HEPES buffer (CM).
as §1, with “Murine splenic” for “Human peripheral blood”, “(5×10^5)” for “(2×10^5)”, “with” for “with pokeweed mitogen at a final concentration of 0.1 μg/mL or”, “2.5” for “1.0”, “plates.” for “plates (Falcon 3072, Becton Dickinson).”, “days.” for “days (Concanavalin A) or 6 days (Pokeweed mitogen).”

anti-ovalbumin IgG = assay: In vivo immune response to T-dependent antigen (ovalbumin): serum anti-ovalbumin IgG by ELISA; set-up: species or system mice; details: for Anti-Ovalbumin Titer ± S.D.: ten days after immunization, dilution giving absorbance 0.750 at 405 nm
Method: In vivo immune response: Mice were radomly distributed by weight into 3 groups of ten. Dosing i.p. with Dulbecco's phosphate buffered saline (PBS) or (Z)-4',5'-didehydro-5'-deoxy-5'-fluoroadenosine (at 5 or 10 mg/Kg) dissolved in PBS was begun one day prior to immunization. Ovalbumin (Sigma, St. Louis, Mo.) at 2 mg/mL in PBS was emulsified in an equal volume of Freunds complete adjuvant and 50 μL, containing 50 μg ovalbumin, was injected into each footpad. Animals were dosed daily. Ten days after the immunization, the animals were bled for serum and sacrificed. Serum levels of anti-ovalbumin IgG were quantitated in an ELISA. Specifically, 100 μL of a 1% ovalbumin solution in Tris-bufferedsaline (TBS) (20 mM Tris, 500 mM NaCl, pH 7.5) was added to individual wells of a 96 well ELISA microtiter plate. The plate was incubated for 2 hours at room temperature and the wells were washed 3 times with TBS containing 0.05% Tween 20 (TBS-Tween). Dilutions of the serum samples in TBS-Tween (100 μL) were added to the wells, which were then incubated for one hour at room temperature. The plate was again washed 3 times with TBS-Tween. The wells were then incubated with 100 μL of a 1:1000 dilution of rabbit anti-mouse IgG labled with horse radish peroxidase (Bio-Rad, Richmond, Calif.) for one hour at room temperature. After washing 3 times with TBS-Tween, the wells were incubated with 100 μL of Bio-Rad peroxidase substrate [2,2'-azino-di-(3-ethyl-benzthiazoline sulfonate) in cocodylic acid buffer and hydrogen peroxide]. Absorbance at 405 nm was measured and the antibody titer was calculated from the linear regression curve of each serum sample and is reported as the log of the dilution which gave an absorbance reading of 0.750, unless otherwise indicated.

Structure (SMILES): Nc1ncnc2c1ncn2[C@@H]1O/C(=C\F)[C@@H](O)[C@H]1O [Compound A, (Z)-4',5'-didehydro-5'-deoxy-5'-fluoroadenosine]
- activity at 1 µM ([1]; Homo sapiens, PBMC, 144 h, 1.0 μM, pokeweed mitogen 0.1 μg/mL, 6 days, read-out: Proliferation (% of Control) Pokeweed mitogen): 50.9%
- activity at 10 µM ([1]; Homo sapiens, PBMC, 144 h, 10.0 μM, pokeweed mitogen 0.1 μg/mL, 6 days, read-out: Proliferation (% of Control) Pokeweed mitogen): 19.7%
- activity at 0.001 µM ([1]; Homo sapiens, PBMC, 144 h, .001 μM, pokeweed mitogen 0.1 μg/mL, 6 days, read-out: Proliferation (% of Control) Pokeweed mitogen): 97.4%
- activity at 0.01 µM ([1]; Homo sapiens, PBMC, 144 h, .01 μM, pokeweed mitogen 0.1 μg/mL, 6 days, read-out: Proliferation (% of Control) Pokeweed mitogen): 103%
- activity at 0.1 µM ([1]; Homo sapiens, PBMC, 144 h, .1 μM, pokeweed mitogen 0.1 μg/mL, 6 days, read-out: Proliferation (% of Control) Pokeweed mitogen): 72.1%
- inhibition of pokeweed stimulated proliferation, in words ([1]; increasing concentrations): dose dependent inhibition
- activity at 1 µM ([2]; Homo sapiens, PBMC, 48 h, 1.0 μM, Concanavalin A 1.0 μg/mL, 2 days, read-out: Proliferation (% of Control) Concanavalin A mitogen): 15.8%
- activity at 10 µM ([2]; Homo sapiens, PBMC, 48 h, 10.0 μM, Concanavalin A 1.0 μg/mL, 2 days, read-out: Proliferation (% of Control) Concanavalin A mitogen): 3.7%
- activity at 0.001 µM ([2]; Homo sapiens, PBMC, 48 h, .001 μM, Concanavalin A 1.0 μg/mL, 2 days, read-out: Proliferation (% of Control) Concanavalin A mitogen): 100%
- activity at 0.01 µM ([2]; Homo sapiens, PBMC, 48 h, .01 μM, Concanavalin A 1.0 μg/mL, 2 days, read-out: Proliferation (% of Control) Concanavalin A mitogen): 101%
- activity at 0.1 µM ([2]; Homo sapiens, PBMC, 48 h, .1 μM, Concanavalin A 1.0 μg/mL, 2 days, read-out: Proliferation (% of Control) Concanavalin A mitogen): 66.4%
- IC50 ([2]; PBMC, 48 h, human cells, Concanavalin A 1.0 μg/mL, 2 days, read-out: IC50, inhibition of Concanavalin A stimulated proliferation): 250 nM
- inhibition of Concanavalin A stimulated proliferation, in words ([2]; human cells, increasing concentrations): dose dependent inhibition
- activity at 1 µM ([3]; Mus musculus, 48 h, 1.0 μM, Concanavalin A 2.5 μg/mL, 2 days, read-out: Proliferation (% of Control) Concanavalin A mitogen): 28.6%
- activity at 10 µM ([3]; Mus musculus, 48 h, 10.0 μM, Concanavalin A 2.5 μg/mL, 2 days, read-out: Proliferation (% of Control) Concanavalin A mitogen): 17.9%
- activity at 0.001 µM ([3]; Mus musculus, 48 h, .001 μM, Concanavalin A 2.5 μg/mL, 2 days, read-out: Proliferation (% of Control) Concanavalin A mitogen): 96.3%
- activity at 0.01 µM ([3]; Mus musculus, 48 h, .01 μM, Concanavalin A 2.5 μg/mL, 2 days, read-out: Proliferation (% of Control) Concanavalin A mitogen): 86%
- activity at 0.1 µM ([3]; Mus musculus, 48 h, .1 μM, Concanavalin A 2.5 μg/mL, 2 days, read-out: Proliferation (% of Control) Concanavalin A mitogen): 51.8%
- IC50 ([3]; Mus musculus, 48 h, murine cells, Concanavalin A 2.5 μg/mL, 2 days, read-out: IC50, inhibition of Concanavalin A stimulated proliferation): 190 nM
- inhibition of Concanavalin A stimulated proliferation, in words ([3]; murine cells, increasing concentrations): dose dependent inhibition
- Anti-Ovalbumin Titer ± S.D. (anti-ovalbumin IgG; 5 mg/Kg i.p. daily): 550 ± 272
- Anti-Ovalbumin Titer ± S.D. (anti-ovalbumin IgG; 10 mg/Kg i.p. daily): 375 ± 124
- serum levels of anti-ovalbumin IgG compared to Controls (anti-ovalbumin IgG; 5 or 10 mg/Kg i.p. daily, in words): significantly reduced
